Values after ≈ are worked out from the molar mass of the structure shown.
Tests used:
[1] = Equilibrium fenofibrate solubility in ethyl esters versus triglycerides; format: physicochemical; conditions: fenofibrate solubility at 25 degrees C. in the vehicle given as label
[2] = Solubility of fenofibrate in E463808-additive mixtures; format: physicochemical; conditions: about 10% v/v additive; 25° C.
Procedure: Equilibrated samples were filtered using 0.2 micrometer PVDF syringe filters and diluted for assay. […] (Tween 85 is also known as polyoxyethylenesorbitan trioleate, Tween 80 is also known as polyoxyethylenesorbitan monooleate, Span 80 is also known as sorbitan monooleate, Span 85 is also known as sorbitan trioleate, and Cremophor EL is also known as polyoxyl castor oil.) Span 80, Span 85, and Tween 85 samples were analyzed using normal-phase HPLC. Cremophor EL, Tween 80, and replicates of Tween 85 samples were analyzed using UV measurements at 285 nm.

[3] = in vivo; cited from earlier work
[4] = Stability and compatibility of fenofibrate and E463808 (gradient HPLC); format: physicochemical; conditions: 80 or 200 mg/mL in E463808, sealed vial or gelcap, 4 deg C. to 60 deg C., up to 8 weeks

Compound	effect of additive on fenofibrate solubility in E463808 [2]	other results
CCCCC/C=C\C/C=C\CCCCCCCC(=O)OCC(COC(=O)CCCCCCC/C=C\C/C=C\CCCCC)OC(=O)CCCCCCC/C=C\C/C=C\CCCCC [Trilinolein]		Solubility [1]: 61.2 mg/mL (≈ 69.6 mM)
polyoxyethylenesorbitan monooleate [Tween 80®]	Slight enhancement in fenofibrate solubility	
CC(C)(Oc1ccc(C(=O)c2ccc(Cl)cc2)cc1)C(=O)O [fenofibric acid]		elimination half-life [3]: approximately twenty
CC(C)OC(=O)C(C)(C)Oc1ccc(C(=O)c2ccc(Cl)cc2)cc1 [Fenofibrate, 2-[4-(4-chlorobenzoyl)phenoxy]-2-methyl-propanoic acid 1-methylethyl ester]		degradation of fenofibrate [4]: no degradation was observed
polyoxyethylenesorbitan trioleate [Tween 85®]	Slight enhancement in fenofibrate solubility	
polyoxyl castor oil [Cremophor® EL]	Slight enhancement in fenofibrate solubility	

Reference: patent US20090149533A1 (TransForm Pharmaceuticals, Inc., priority 2004, published 2009)
